The values that follow come from article PMC5011342, “A high throughput drug screening assay to identify compounds that promote oligodendrocyte differentiation using acutely dissociated and purified oligodendrocyte precursor cells” (BMC Research Notes, 2016).

Read-outs that look alike come from different tables or passages of the source.

Data set [1] concerns acutely dissociated and purified rat OPCs. Put plainly: Acute OL differentiation assay (MBP expression/cell, immunofluorescent image quantification). The conditions noted are these: Rattus norvegicus, sheet "All OLga data". The class given is cell-based. Summed up:
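Oligodendrocyte precursor cells were enriched from P6-P7 Sprague–Dawley rat brains by immunopanning (RAN-2 and GalC depletion, O4 selection), plated at 5000 cells/well in serum-free, mitogen-free differentiation media on PDL/laminin 96-well view plates, centrifuged at 200×g, and pre-incubated 1–2 h before test compounds were added in quadruplicate. On DIV4, cells were fixed, stained for MBP and DAPI, imaged automatically, and MBP expression per cell was quantified.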

Another data set has as its system expanded OPCs. As to the kind of experiment: cells. To be noted: for 0.1 µM (% DMSO) / 1 µM (% DMSO) / 10 µM (% DMSO): alamarBlue viability of expanded OPCs, relative to DMSO control; for 0.1 µM (% DMSO): compound at 0.1 µM; for 1 µM (% DMSO): compound at 1 µM; for 10 µM (% DMSO): compound at 10 µM; for viability at 0.1 µM / viability at 1 µM / viability at 10 µM: Rattus norvegicus, 72 h. Put shortly: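 Expanded OPCs seeded at 10,000 cells/well in differentiation media, then exposed to NCC library compounds at 10, 1 and 0.1 µM (quadruplicate, 0.1% DMSO) for three days. Viability read as alamarBlue fluorescence (560/590 nm) after 4 h at 37 °C; tunicamycin 5 ng/ml served as toxicity control.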
A general note: The colour change of resazurin is a common sign of viable cells or microbes.

The mark [2] stands for this setting: test compound at 2 uM, MBP expression relative to quetiapine, NCC library screen, read-out: 2 uM (% Quet).
Setting [3] is: test compound at 10 uM, MBP expression relative to quetiapine, NCC library screen, read-out: 10 uM (% Quet).
The mark [4] stands for this setting: test compound at 2 uM, NCC library screen, relative to quetiapine, read-out: 2 uM (% Quet).
[5] abbreviates: test compound at 10 uM, NCC library screen, relative to quetiapine, read-out: 10 uM (% Quet).
[6] abbreviates: read-out: 0.1 µM (% DMSO), alamarBlue viability, NCC library compound at 0.1 µM, sheet "All Tox data".
Where [7] appears, read: read-out: 1 µM (% DMSO), alamarBlue viability, NCC library compound at 1 µM, sheet "All Tox data".
The mark [8] stands for this setting: read-out: 10 µM (% DMSO), alamarBlue viability, NCC library compound at 10 µM, sheet "All Tox data".
Setting [9] is: 2 uM test compound, relative to quetiapine, read-out: OL differentiation, 2 uM (% Quet).
[10] abbreviates: 10 uM test compound, relative to quetiapine, read-out: OL differentiation, 10 uM (% Quet).
Where [11] appears, read: read-out: 0.1 µM (% DMSO), alamarBlue viability of expanded OPCs, compound at 0.1 µM, sheet All Tox data.
[12] abbreviates: read-out: 1 µM (% DMSO), alamarBlue viability of expanded OPCs, compound at 1 µM, sheet All Tox data.
The mark [13] stands for this setting: read-out: 10 µM (% DMSO), alamarBlue viability of expanded OPCs, compound at 10 µM, sheet All Tox data.

As usually defined, the viability is a read-out of living cells in per cent, often relative to untreated cells.

`CO/N=C(\C(=O)N[C@@H]1C(=O)N2C(C(=O)O)=C(COC(N)=O)CS[C@H]12)c1ccco1` [Cefuroxime]: the activation at 2 µM in data set [1] (setting [2]) amounted to 13.5%. In data set [1] (setting [3]), the activation at 10 µM came to 13.9%. Besides, in the data set on expanded OPCs, the “0.1 µM (% DMSO)” value was 91.1 % DMSO, the “1 µM (% DMSO)” value is recorded as 94.9 % DMSO and the “10 µM (% DMSO)” value was determined as 91.5 % DMSO.
On to `CN(C)CCC=C1c2ccccc2CCc2ccccc21` [Amitriptyline], for which the activation at 0.4 µM in data set [1] (test compound at 0.4 uM, NCC library screen, relative to quetiapine, read-out: 0.4 uM (% Quet)) was -6%. For the same compound, the activation at 2 µM in data set [1] (setting [4]) is -23.5%. Also, in the data set with expanded OPCs, the “0.1 µM (% DMSO)” value is given as 82.0 % DMSO, the “1 µM (% DMSO)” value worked out at 60.1 % DMSO and the “10 µM (% DMSO)” value amounted to 18.3 % DMSO.
`CC(=O)NS(=O)(=O)c1ccc(N)cc1` [Sulfacetamide]: the activation at 2 µM in data set [1] (setting [4]) was found to be 11.2%. In data set [1] (setting [5]), the activation at 10 µM is 0.16%. The viability at 0.1 µM with expanded OPCs (setting [6]) came to 90.1%. Besides, in the data set with expanded OPCs (setting [7]), the viability at 1 µM was found to be 91.6%. Also, the viability at 10 µM in the data set on expanded OPCs (setting [8]) was determined as 89.7%.
As to `CC(C(=O)O)c1ccc(-c2ccccc2)c(F)c1` (centres unmarked) [Flurbiprofen], the activation at 2 µM in data set [1] (setting [9]) was -3.6%; in data set [1] (setting [4]), 1.8%. For the same compound, the activation at 10 µM in data set [1] (setting [10]) was 24.6%; in data set [1] (setting [5]) it was -6.1%. For the same compound, the viability at 0.1 µM with expanded OPCs (setting [11]) was 95.9%; with expanded OPCs (setting [6]), 91.1%. For the same compound, the viability at 1 µM in the data set with expanded OPCs (setting [12]) stood at 103%; in the data set on expanded OPCs (setting [7]), 88.1%. In addition, the viability at 10 µM in the data set with expanded OPCs (setting [13]) was determined as 91.2%; with expanded OPCs (setting [8]), 89.4%.
For `CCCCc1nc(Cl)c(CO)n1Cc1ccc(-c2ccccc2-c2nn[nH]n2)cc1` [Losartan], the activation at 2 µM in data set [1] (setting [9]) was determined as 5.2%. Besides, the activation at 10 µM in data set [1] (setting [10]) is -7.3%. Also, the viability at 0.1 µM in the data set with expanded OPCs (setting [11]) was 97.6%. Moreover, the viability at 1 µM in the data set on expanded OPCs (setting [12]) is 91.6%. The viability at 10 µM with expanded OPCs (setting [13]) was 102%.
As for `Cc1cccc(Nc2ccncc2S(=O)(=O)NC(=O)NC(C)C)c1` [Torsemide], the activation at 2 µM in data set [1] (setting [9]) stood at 31.2%. Besides, in data set [1] (setting [10]), the activation at 10 µM was -6.1%. Also, the viability at 0.1 µM in the data set on expanded OPCs (setting [11]) turned out to be 90.5%. The viability at 1 µM in the data set with expanded OPCs (setting [12]) was 88.3%. Besides, the viability at 10 µM in the data set with expanded OPCs (setting [13]) amounted to 93.4%.
Taken in the same sequence, the figures for `Cc1nc2n(c(=O)c1CCN1CCC(c3noc4cc(F)ccc34)CC1)CCCC2` [Risperidone] were 2.4%, 31.6%, 92.3%, 99.8% and 90.2%.
Consider `COc1cc([C@@H]2c3cc4c(cc3[C@@H](O[C@@H]3O[C@@H]5CO[C@@H](C)O[C@H]5[C@H](O)[C@H]3O)[C@H]3COC(=O)[C@H]23)OCO4)cc(OC)c1O` [Etoposide], for which the activation at 0.08 µM in data set [1] (test compound at 0.08 uM, NCC library screen, relative to quetiapine, read-out: 0.08 uM (% Quet)) was -42.3%. Also, the viability at 0.1 µM in the data set with expanded OPCs (setting [6]) turned out to be 40.9%. Besides, in the data set on expanded OPCs (setting [7]), the viability at 1 µM was determined as 14%. For the same compound, the viability at 10 µM in the data set on expanded OPCs (setting [8]) was determined as 8.9%.
Consider `CC(C)(C#N)c1cc(Cn2cncn2)cc(C(C)(C)C#N)c1` [Anastrozole], for which the activation at 2 µM in data set [1] (setting [4]) is -29.6%. Further, the activation at 10 µM in data set [1] (setting [5]) was -33%. Besides, in the data set with expanded OPCs (setting [6]), the viability at 0.1 µM is 87.4%. In the data set with expanded OPCs (setting [7]), the viability at 1 µM worked out at 92.9%. For the same compound, the viability at 10 µM in the data set with expanded OPCs (setting [8]) was 80.3%.
As for `O=c1c(O[C@@H]2O[C@H](CO)[C@@H](O)[C@H](O)[C@H]2O)c(-c2ccc(O)c(O)c2)oc2cc(O)cc(O)c12` [Isoquercitrin], in data set [1] (setting [9]), the activation at 2 µM amounted to 12.9%. In data set [1] (setting [10]), the activation at 10 µM came out at 8.7%. In the data set with expanded OPCs (setting [11]), the viability at 0.1 µM stood at 85.5%. Besides, the viability at 1 µM in the data set with expanded OPCs (setting [12]) was determined as 92.9%. In addition, the viability at 10 µM in the data set on expanded OPCs (setting [13]) amounted to 101%.
Turning to `CC[C@@H](CO)NCCN[C@@H](CC)CO` [Ethambutol], the activation at 2 µM in data set [1] (setting [2]) was 2.2%. Also, in data set [1] (setting [3]), the activation at 10 µM was -11.9%. In the data set with expanded OPCs, the “0.1 µM (% DMSO)” value is on record as 106.3 % DMSO, the “1 µM (% DMSO)” value amounted to 100.0 % DMSO and the “10 µM (% DMSO)” value stood at 85.9 % DMSO.
